Assays:
[1] = Fluid (supercritical or subcritical phases), isochoric method
[2] = molar heat capacity at constant volume; details: Fluid (supercritical or subcritical phases), Vacuum adiabatic calorimetry
[3] = xn = mol fraction of the nth substance listed; details: Fluid (supercritical or subcritical phases), isochoric method, x1 = 0.489
[4] = molar heat capacity at constant volume; xn = mol fraction of the nth substance listed; details: Fluid (supercritical or subcritical phases), Vacuum adiabatic calorimetry, x1 = 0.489

F/C=C/C(F)(F)F [trans-1,3,3,3-tetrafluoropropene]
Details | mass density, [1] [kg/m3] | molar heat capacity at constant volume, [2] [J/K/mol]
270.15 K, 5540 kPa | 1266.6 | 107.31
275.15 K, 7679 kPa | 1266.2 | 107.2
280.15 K, 9813 kPa | 1265.7 | 108
285.15 K, 11937 kPa | 1265.3 | 107.88
290.15 K, 14055 kPa | 1264.9 | 107.43
295.15 K, 2684 kPa | 1185 | 110.39
295.15 K, 16163 kPa | 1264.4 | 107.2
300.15 K, 4324 kPa | 1184.7 | 111.19
305.15 K, 5963 kPa | 1184.3 | 111.42
310.15 K, 7598 kPa | 1184 | 112.22
315.15 K, 9231 kPa | 1183.6 | 111.99
320.15 K, 10858 kPa | 1183.3 | 112.9
325.15 K, 12483 kPa | 1182.9 | 112.45
330.15 K, 14103 kPa | 1182.5 | 113.13
335.15 K, 3368 kPa | 1048.2 | 122.82
335.15 K, 15720 kPa | 1182.2 | 111.99
340.15 K, 4423 kPa | 1047.9 | 121.57
345.15 K, 5477 kPa | 1047.7 | 121.91
350.15 K, 6529 kPa | 1047.4 | 121
355.15 K, 7582 kPa | 1047.1 | 119.97
360.15 K, 8633 kPa | 1046.9 | 118.83
365.15 K, 9684 kPa | 1046.6 | 118.49
370.15 K, 10734 kPa | 1046.3 | 118.95
375.15 K, 11784 kPa | 1046.1 | 119.06
380.15 K, 12833 kPa | 1045.8 | 120.88
385.15 K, 4344 kPa | 717.5 | 195.81
385.15 K, 13882 kPa | 1045.6 | 121
390.15 K, 4695 kPa | 717.4 | 192.84
390.15 K, 14930 kPa | 1045.3 | 120.43
395.15 K, 5051 kPa | 717.3 | 190.11
395.15 K, 15976 kPa | 1045 | 122.14
400.15 K, 5410 kPa | 717.1 | 185.43
405.15 K, 5772 kPa | 717 | 181.21
410.15 K, 6137 kPa | 716.9 | 176.31
415.15 K, 6503 kPa | 716.8 | 174.37
420.15 K, 6872 kPa | 716.7 | 171.18
425.15 K, 7243 kPa | 716.6 | 167.53

F/C=C/C(F)(F)F [trans-1,3,3,3-tetrafluoropropene] + O=C=O
Details | mass density, [3] [kg/m3] | molar heat capacity at constant volume, [4] [J/K/mol]
270.15 K, 10302 kPa | 1191.8 | 74.42
275.15 K, 14848 kPa | 1191 | 74.81
280.15 K, 19370 kPa | 1190.1 | 75.36
285.15 K, 23857 kPa | 1189.2 | 75.44
286.15 K, 24752 kPa | 1189 | 77.71
290.15 K, 7501 kPa | 1115.7 | 76.77
290.15 K, 28318 kPa | 1188.3 | 75.75
295.15 K, 11107 kPa | 1115 | 77.86
300.15 K, 14713 kPa | 1114.2 | 78.41
301.15 K, 15434 kPa | 1114.1 | 78.57
302.15 K, 16154 kPa | 1114 | 78.33
303.15 K, 16872 kPa | 1113.8 | 77.63
306.15 K, 19026 kPa | 1113.3 | 76.61
310.15 K, 21888 kPa | 1112.7 | 79.59
315.15 K, 25455 kPa | 1112 | 79.12
320.15 K, 9139 kPa | 1003.8 | 75.59
320.15 K, 28987 kPa | 1111.2 | 78.18
325.15 K, 11633 kPa | 1003.2 | 76.38
330.15 K, 14125 kPa | 1002.7 | 75.99
335.15 K, 16616 kPa | 1002.1 | 74.81
340.15 K, 19103 kPa | 1001.6 | 74.81
345.15 K, 21584 kPa | 1001 | 76.85
350.15 K, 24061 kPa | 1000.4 | 76.46
355.15 K, 26532 kPa | 999.9 | 76.53
360.15 K, 28998 kPa | 999.3 | 78.8
361.15 K, 7303 kPa | 648.9 | 98.76
365.15 K, 7938 kPa | 648.7 | 97.58
370.15 K, 8742 kPa | 648.5 | 100.71
375.15 K, 9557 kPa | 648.3 | 103.3
380.15 K, 10380 kPa | 648.1 | 104.86
385.15 K, 11211 kPa | 647.9 | 104.47
390.15 K, 12047 kPa | 647.6 | 106.11
395.15 K, 12887 kPa | 647.4 | 107.91
400.15 K, 13731 kPa | 647.2 | 103.92
405.15 K, 14576 kPa | 647 | 102.28
410.15 K, 15424 kPa | 646.8 | 97.11
415.15 K, 16273 kPa | 646.6 | 93.67
420.15 K, 17122 kPa | 646.3 | 92.5
425.15 K, 17972 kPa | 646.1 | 91.79

— the NIST ThermoML archive (doi:10.1021/je101209e)
